Activity calls are given as the source filed them. The calls are words filed in the database; no cut-off is given here.
Experiments:
A549 [1] = test: Cytotoxicity against human A549 cells assessed as cell viability after 48 hrs by MTT assay; type: functional, cell-based; settings: A549, 48 h
HOP-62 = test: Cytotoxicity against human HOP-62 cells assessed as cell viability after 48 hrs by MTT assay; type: functional, cell-based; settings: HOP-62, 48 h
A549 [2] = test: Inhibition of colony formation in human A549 cells measured after 24 hrs; type: functional, cell-based; settings: dose 0.1-1 µM, DDE = dose-dependent effect
A549 [3] = test: Induction of cell cycle arrest in human A549 cells assessed as accumulation at SubG1 phase at IC50 after 48 hrs by flow cytometry; type: functional, cell-based
A549 [4] = test: Induction of apoptosis in human A549 cells assessed as […] deformation at 0.1 to 1 uM after 24 hrs by fluorescence microscopic analysis; type: functional, cell-based; settings: dose 0.1-1 µM
A549 [5] = test: Induction of apoptosis in human A549 cells assessed as nuclear condensation at 0.1 to 1 uM after 24 hrs by fluorescence microscopic analysis; type: functional, cell-based; settings: dose 0.1-1 µM
A549 [6] = test: Induction of autophagy in human A549 cells by acridine orange and propidium iodide staining based fluorescence microscopic analysis; type: functional, cell-based; settings: DDE = dose-dependent effect
Histone deacetylase 3 = Histone deacetylase 3 (Homo sapiens, UniProt O15379); test: Inhibition of HDAC3 (unknown origin) by colorimetric method
Histone deacetylase 5 = Histone deacetylase 5 (Homo sapiens, UniProt Q9UQL6); test: Inhibition of HDAC5 (unknown origin) by colorimetric method
[7] = target: T1, Protein deacetylase HDAC6 (Homo sapiens, UniProt Q9UBN7); test: Inhibition of HDAC6 (unknown origin) by colorimetric method
T1 sequence (Q9UBN7 whole entry): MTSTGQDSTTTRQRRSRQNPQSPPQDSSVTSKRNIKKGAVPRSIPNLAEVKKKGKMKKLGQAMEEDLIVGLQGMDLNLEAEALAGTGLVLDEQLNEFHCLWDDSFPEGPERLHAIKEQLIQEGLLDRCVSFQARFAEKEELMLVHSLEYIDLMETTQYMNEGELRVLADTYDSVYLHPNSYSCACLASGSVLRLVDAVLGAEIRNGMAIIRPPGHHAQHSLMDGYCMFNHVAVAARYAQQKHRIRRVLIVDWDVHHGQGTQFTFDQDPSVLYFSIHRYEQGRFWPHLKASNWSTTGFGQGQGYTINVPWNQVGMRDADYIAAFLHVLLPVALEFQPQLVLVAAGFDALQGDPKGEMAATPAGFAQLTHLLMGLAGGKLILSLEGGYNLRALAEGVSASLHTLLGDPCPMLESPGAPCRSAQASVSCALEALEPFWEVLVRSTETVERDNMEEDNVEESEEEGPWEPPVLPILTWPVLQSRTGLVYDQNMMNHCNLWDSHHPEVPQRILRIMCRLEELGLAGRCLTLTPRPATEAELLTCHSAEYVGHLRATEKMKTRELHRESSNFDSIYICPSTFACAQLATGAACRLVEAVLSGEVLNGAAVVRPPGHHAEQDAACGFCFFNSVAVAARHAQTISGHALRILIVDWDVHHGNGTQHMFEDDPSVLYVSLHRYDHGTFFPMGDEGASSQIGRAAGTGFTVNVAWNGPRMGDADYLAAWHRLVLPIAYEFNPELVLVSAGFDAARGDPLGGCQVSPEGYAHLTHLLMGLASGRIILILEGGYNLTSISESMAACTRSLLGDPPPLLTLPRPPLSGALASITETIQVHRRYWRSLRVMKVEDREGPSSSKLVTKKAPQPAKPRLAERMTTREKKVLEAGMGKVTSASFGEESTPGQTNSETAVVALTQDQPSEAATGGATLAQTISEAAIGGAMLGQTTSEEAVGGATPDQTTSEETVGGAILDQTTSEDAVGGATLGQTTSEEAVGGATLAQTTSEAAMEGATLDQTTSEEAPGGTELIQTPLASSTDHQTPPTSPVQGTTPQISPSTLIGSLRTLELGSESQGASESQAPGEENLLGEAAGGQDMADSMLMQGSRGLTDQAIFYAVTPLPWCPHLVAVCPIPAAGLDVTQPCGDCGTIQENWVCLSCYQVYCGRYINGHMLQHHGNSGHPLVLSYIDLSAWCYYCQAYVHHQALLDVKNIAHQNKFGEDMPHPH

Histone deacetylase 8 = target: T2, Histone deacetylase 8 (Homo sapiens, UniProt Q9BY41); test: Inhibition of HDAC8 (unknown origin) by colorimetric method
T2 sequence (Q9BY41 whole entry): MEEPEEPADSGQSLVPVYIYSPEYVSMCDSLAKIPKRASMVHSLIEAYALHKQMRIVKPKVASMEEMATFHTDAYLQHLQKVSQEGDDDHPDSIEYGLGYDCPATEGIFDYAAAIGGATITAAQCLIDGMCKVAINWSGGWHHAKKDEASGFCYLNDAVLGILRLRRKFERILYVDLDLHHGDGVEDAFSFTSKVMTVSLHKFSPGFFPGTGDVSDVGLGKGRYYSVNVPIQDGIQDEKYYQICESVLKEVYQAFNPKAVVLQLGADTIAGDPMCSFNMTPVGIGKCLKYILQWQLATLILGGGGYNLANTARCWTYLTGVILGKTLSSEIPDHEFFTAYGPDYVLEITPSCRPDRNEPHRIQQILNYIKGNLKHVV

Homo sapiens [8] = species: Homo sapiens; test: Selectivity index, ratio of IC50 for HDAC 1 (unknown origin) to IC50 for HDAC 6 (unknown origin)
Homo sapiens [9] = species: Homo sapiens; test: Selectivity index, ratio of IC50 for HDAC4 (unknown origin) to IC50 for HDAC 6 (unknown origin)
Homo sapiens [10] = species: Homo sapiens; test: Selectivity index, ratio of IC50 for HDAC5 (unknown origin) to IC50 for HDAC 6 (unknown origin)
Homo sapiens [11] = species: Homo sapiens; test: Selectivity index, ratio of IC50 for HDAC7 (unknown origin) to IC50 for HDAC 6 (unknown origin)
Homo sapiens [12] = species: Homo sapiens; test: Selectivity index, ratio of IC50 for HDAC 4 (unknown origin) to IC50 for HDAC 3 (unknown origin)
Homo sapiens [13] = species: Homo sapiens; test: Selectivity index, ratio of IC50 for HDAC6 (unknown origin) to IC50 for HDAC 3 (unknown origin)
Homo sapiens [14] = species: Homo sapiens; test: Selectivity index, ratio of IC50 for HDAC 9 (unknown origin) to IC50 for HDAC 3 (unknown origin)
Homo sapiens [15] = species: Homo sapiens; test: Selectivity index, ratio of IC50 for HDAC 2 (unknown origin) to IC50 for HDAC 1 (unknown origin)
Homo sapiens [16] = species: Homo sapiens; test: Selectivity index, ratio of IC50 for HDAC6 (unknown origin) to IC50 for HDAC 1 (unknown origin)
Homo sapiens [17] = species: Homo sapiens; test: Selectivity index, ratio of IC50 for HDAC7 (unknown origin) to IC50 for HDAC 1 (unknown origin)
Homo sapiens [18] = species: Homo sapiens; test: Selectivity index, ratio of IC50 for HDAC9 (unknown origin) to IC50 for HDAC 1 (unknown origin)
A549 [19] = test: Inhibition of HDAC1/HDAC3/HDAC6 in human A549 cells assessed as increase in H3 acK9 level by Western blot analysis; type: cell-based
A549 [20] = test: Inhibition of HDAC1/HDAC3/HDAC6 in human A549 cells assessed as increase in alpha-tubulin-ack40 level by Western blot analysis; type: cell-based

Sequence of Histone deacetylase 5 (Q9UQL6 whole entry): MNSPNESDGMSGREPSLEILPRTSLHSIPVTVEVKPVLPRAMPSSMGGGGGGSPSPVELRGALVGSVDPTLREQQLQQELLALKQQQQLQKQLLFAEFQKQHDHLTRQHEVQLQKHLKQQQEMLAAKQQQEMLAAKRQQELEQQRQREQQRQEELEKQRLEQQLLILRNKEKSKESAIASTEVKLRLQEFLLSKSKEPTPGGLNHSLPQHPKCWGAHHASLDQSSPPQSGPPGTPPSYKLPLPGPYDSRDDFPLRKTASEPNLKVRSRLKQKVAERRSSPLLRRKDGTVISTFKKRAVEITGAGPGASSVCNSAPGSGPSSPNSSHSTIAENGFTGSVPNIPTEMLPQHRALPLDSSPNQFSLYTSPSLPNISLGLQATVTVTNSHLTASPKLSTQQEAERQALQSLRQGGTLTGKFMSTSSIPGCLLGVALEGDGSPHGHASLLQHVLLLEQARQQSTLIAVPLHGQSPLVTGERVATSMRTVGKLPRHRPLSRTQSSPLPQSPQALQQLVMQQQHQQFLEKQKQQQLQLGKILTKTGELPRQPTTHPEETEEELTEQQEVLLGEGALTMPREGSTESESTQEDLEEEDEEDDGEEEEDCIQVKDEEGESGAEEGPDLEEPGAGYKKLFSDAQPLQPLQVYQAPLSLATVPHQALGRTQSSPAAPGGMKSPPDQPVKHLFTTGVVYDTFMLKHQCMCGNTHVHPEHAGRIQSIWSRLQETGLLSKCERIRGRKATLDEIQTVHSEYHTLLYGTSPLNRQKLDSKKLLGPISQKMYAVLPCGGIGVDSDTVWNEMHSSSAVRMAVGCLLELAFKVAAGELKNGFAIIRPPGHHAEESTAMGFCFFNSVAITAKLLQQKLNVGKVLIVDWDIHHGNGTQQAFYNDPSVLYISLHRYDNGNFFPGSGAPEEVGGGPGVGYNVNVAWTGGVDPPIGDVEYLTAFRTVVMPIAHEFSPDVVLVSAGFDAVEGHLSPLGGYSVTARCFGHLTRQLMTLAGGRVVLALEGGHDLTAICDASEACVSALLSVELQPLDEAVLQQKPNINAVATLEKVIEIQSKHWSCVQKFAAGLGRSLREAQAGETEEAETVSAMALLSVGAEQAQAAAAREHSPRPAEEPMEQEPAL
Sequence of Histone deacetylase 3 (O15379 whole entry): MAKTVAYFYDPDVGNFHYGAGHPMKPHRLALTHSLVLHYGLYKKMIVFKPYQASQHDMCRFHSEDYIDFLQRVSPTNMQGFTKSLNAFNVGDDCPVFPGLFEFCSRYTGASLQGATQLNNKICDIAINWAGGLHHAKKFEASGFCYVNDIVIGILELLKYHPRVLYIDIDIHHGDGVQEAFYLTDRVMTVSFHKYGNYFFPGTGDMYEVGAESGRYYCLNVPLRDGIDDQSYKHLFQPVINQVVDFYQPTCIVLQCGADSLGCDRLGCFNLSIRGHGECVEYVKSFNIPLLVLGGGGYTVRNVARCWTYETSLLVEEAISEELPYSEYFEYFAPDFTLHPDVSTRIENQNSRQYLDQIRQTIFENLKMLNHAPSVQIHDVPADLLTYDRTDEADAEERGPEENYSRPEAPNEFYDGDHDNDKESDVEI

## O=C(/C=C/c1ccc(CNc2ccc3nc4n(c(=O)c3c2)CCCCC4)cc1)NO
A549 [1]
  IC50: 855 nM
HOP-62
  IC50: 900 nM
A549 [2]
  inhibition: Dde
A549 [3]
  Activity: Active
A549 [4]
  Activity: Active
A549 [5]
  Activity: Active
A549 [6]
  Activity: Dde
Histone deacetylase 3
  IC50: 68.5 nM
Histone deacetylase 5
  IC50: 617 nM
[7]
  IC50: 12.9 nM
Histone deacetylase 8
  IC50: 178 nM
Homo sapiens [8]
  Ratio IC50: 3.86
Homo sapiens [9]
  Ratio IC50: 126
Homo sapiens [10]
  Ratio IC50: 47.8
Homo sapiens [11]
  Ratio IC50: 316
Homo sapiens [12]
  Ratio IC50: 23.8
Homo sapiens [13]
  Ratio IC50: 0.188
Homo sapiens [14]
  Ratio IC50: 63.1
Homo sapiens [15]
  Ratio IC50: 25.2
Homo sapiens [16]
  Ratio IC50: 0.25
Homo sapiens [17]
  Ratio IC50: 81.8
Homo sapiens [18]
  Ratio IC50: 86.6
A549 [19]
  inhibition: Active
A549 [20]
  inhibition: Active

— ChEMBL document CHEMBL5113502, “Accommodation of ring C expanded deoxyvasicinone in the HDAC inhibitory pharmacophore culminates into a tractable anti-lung cancer agent and pH-responsive nanocarrier” (Eur J Med Chem, 2022)
